Measurements published in ChEMBL document CHEMBL1151526, “3-Acetoxy-2,2-bi-1H-indol as a novel inhibitor of ATP binding to DnaA, the protein initiating chromosomal replication in escherichia coli” (Bioorg Med Chem Lett, 1994).

Experiment: Inhibition of [alpha-32P]ATP binding to DnaA protein purified from Escherichia coli

Row | IC50 | Compound
1 | 200 µM | CCOc1c(-c2cc3ccccc3[nH]2)[nH]c2ccccc12
2 | 40 µM | CC(=O)Oc1c(-c2cc3ccccc3[nH]2)[nH]c2ccccc12
3 | > 10000 µM | O=C1C(c2c[nH]c3ccccc23)=C(c2c[nH]c3ccccc23)C(=O)N1Cc1ccccc1
4 | 1500 µM | CC(=O)Oc1c(-c2c(C(C)=O)c3ccccc3n2C(C)=O)[nH]c2ccccc12
5 | 5000 µM | CC(c1ccccc1)N1C(=O)c2c(c3c4ccccc4[nH]c3c3[nH]c4ccccc4c23)C1=O (stereo not given)
6 | > 10000 µM | Nc1ncnc2c1ncn2[C@@H]1O[C@H](CO)[C@@H](O)[C@H]1O [ADENOSINE]
7 | 3000 µM | CN(C)CCCn1cc(C2=C(c3c[nH]c4ccccc34)C(=O)NC2=O)c2ccccc21 [GF-109203]
8 | 200 µM | O=C1/C(=C2\Nc3ccccc3C2=O)Nc2ccccc21 [INDIGO]
9 | > 10000 µM | c1ccc2[nH]ccc2c1 [INDOLE]
10 | 1000 µM | O=C1NC(=O)C(c2c[nH]c3ccccc23)=C1c1c[nH]c2ccccc12 [RO-316233]
